Experimental data from patent publication US20240124455A1, “TRICYCLIC COMPOUNDS AS ANTICANCER AGENTS” (JINGRUI BIOPHARMA CO., LTD., priority 2021, published 2024).

Assays:
BRD4 (BD1) = target: T1, BRD4 (BD1) (Homo sapiens, UniProt O60885); assay: BRD4 (BD1) binding assay (HTRF); conditions: BRD4 (D1) with GST tag and biotin-labeled acetylated peptide
T1 construct: purchased Reaction Biology Company RD-11-157
Method: The BRD4 (BD1) biochemical binding assay was carried out by Sundia MediTech Co., Ltd. • Materials and suppliers: • BRD4(D1): Reaction Biology Company; catalog #: RD-11-157; batch #1319 • Positive control compound: AZD5153; Selleck, catalog #, S8344, batch #, 1 • Peptide: GL China; catalog #329934; batch #, P171229-JQ329934 • DMSO: Sigma; catalog #, D8418-1L; batch #, SHBG3288V • OptiPlate-384: PerkinElmer; catalog #6007270, batch #, 8240-17211 • Instruments: • Centrifuge (manufacturer: Eppendorf, model: 5430) • Microplate reader (manufacturer: Perkin Elmer, model: EnVision) • Sonic pipetting system (manufacturer: Labcyte, model: Echo® 550) • In the assay, the HTRF method uses an anti-GST antibody with a cryptate chelate-labeled europium element as the donor, and the d2 or XL665-labeled streptavidin (having high affinity with biotin) as the acceptor to study the interaction between BRD4 (D1) with GST tag and biotin-labeled acetylated peptide. When the donor and acceptor are close to each other due to the binding of BRD4 (D1) to the biotin-labeled peptide, the excitation of the donor triggers fluorescence resonance energy transfer (FRET) to the acceptor, which then emits fluorescence at a specific wavelength (665 nm). • General assay procedure: 20 nL of compound solution was transferred to the 384-well plate by Labcyte Echo® 550 liquid handler, and 5 μL of BRD4 (BD1) solution from Reaction Biology Company, RD-11-157, or the assay buffer was added to each well. After centrifuge for 1 minute and incubating 15 minutes at rt, the 5 μL peptide (GL China, Catalog #329934, Batch, P171229-JQ329934) was added to each well. After centrifuge for 1 minute at 1000 rpm, 10 μL detect solution was added to each well. After incubating for 60 minutes, centrifuging 1 minute, the signals were measured by Microplate reader. Data analysis: The inhibition percentage in the presence of the compound was calculated based on the following formula:
% Inhibition=(Signal_max−Signal sample/Signal_max−Signal_min)×100
Fitting the data in GrphaPad Prism V5.0 software with log(inhibitor) vs. response-Variable slope, the IC50 was obtained.

MV-4-11 = assay: Cell proliferation assay (Cell Titer-Glo); assay type: cell-based; conditions: MV-4-11 cells, compound treatment 72 h, CellTiter-Glo
Method: In order to evaluate the activity of the compound on cells, the Cell Titer-Glo assay was used for detection. The cells were incubated in a 37° C. incubator and treated with compounds for 72 hours. At the end of the reaction, the number of living cells in the culture is measured by quantitative determination of ATP. ATP is an indicator of the metabolism of living cells. With Cell Titer-Glo, the luminescence signal produced by cell lysis is proportional to the amount of ATP present, and the amount of ATP is directly proportional to the number of cells in the culture. These signal ratios reflect the cell activity of the compound at that concentration in the well under this condition. • (1) Seeding cells • Trypsinize cells and count cell density with the automated cell counter. • Dilute cell suspension to required density according to seeding density. • Seed 100 ul cells into 96-well plate in growth medium according to the plate map. Medium only is used as background control (Min). • Incubate at 37° C., 5% CO2 overnight. • (2) Compound treatment • Make 200× compound solution in DMSO. • Dilute compounds with growth medium to 3× final concentration by addition of 3 ul 200× compounds to 197 ul growth medium. • Add 50 ul diluted compounds to cells and incubate at 37° C., 5% CO2 for 72 h. • (3) Measurement • Equilibrate the assay plate to room temperature prior to measurement. • Add 40 ul of CellTiter-Glo® Reagent into each well. • Mix contents for 2 minutes on an orbital shaker to induce cell lysis. • Incubate at room temperature for 60 minutes to stabilize luminescent signal. • Record luminescence on Envision. • (4) Data analysis • (1) Using GraphPad Prism 5. • (2) % Inh=(Max signal−Compound signal)/(Max signal−Min signal)×100. • (3) Max signal was obtained from the action of DMSO. • (4) Min signal was obtained from the action of medium only.

| IC50 (BRD4 (BD1)) [nM] | IC50 (MV-4-11; Homo sapiens, MV4-11, 72 h) [nM] | IC50 (MV-4-11) [nM] | SMILES |
| --- | --- | --- | --- |
| 0.3 | 1.48 | – | Cc1nnn(C)c1-c1cnc2c3nn(C)c(C(C)(C)O)c3n(C(c3ccccc3)C3CCOCC3)c2c1 (racemic) [Example 2, 2-(6-(1,4-Dimethyl-1H-1,2,3-triazol-5-yl)-2-methyl-4-(phenyl(tetrahydro-2H-pyran-4-yl)methyl)-2,4-dihydropyrazolo[3′,4′:4,5]pyrrolo[3,2-b]pyridin-3-yl)propan-2-ol] |
| 0.61 | 1.98 | – | Cc1nnn(C)c1-c1cnc2c3nn(C)c(C(C)(C)O)c3n(C(c3ccccn3)C3CCOCC3)c2c1 (racemic) [Example 6] |
| 0.61 | 3.42 | – | Cc1nnn(C)c1-c1cnc2c3nn(C)c(C(C)(C)O)c3n(C(c3ncccc3F)C3CCOCC3)c2c1 (racemic) [Example 10, 2-(6-(1,4-Dimethyl-1H-1,2,3-triazol-5-yl)-4-((3-fluoropyridin-2-yl)(tetrahydro-2H-pyran-4-yl)methyl)-2-methyl-2,4-dihydropyrazolo[3′,4′:4,5]pyrrolo[3,2-b]pyridin-3-yl)propan-2-ol] |
| 0.53 | – | 1.77 | [2H]C([2H])([2H])n1nc2c3ncc(-c4c(C)nnn4C)cc3n(C(c3ncccc3F)C3CCOCC3)c2c1C(C)(C)O (racemic) [Example 14, 2-(6-(1,4-Dimethyl-1H-1,2,3-triazol-5-yl)-4-((3-fluoropyridin-2-yl)(tetrahydro-2H-pyran-4-yl)methyl)-2-(methyl-d3)-2,4-dihydropyrazolo[3′,4′:4,5]pyrrolo[3,2-b]pyridin-3-yl)propan-2-ol] |
| 0.52 | – | 1.94 | [2H]C([2H])([2H])c1nnn(C)c1-c1cnc2c3nn(C)c(C(C)(C)O)c3n(C(c3ncccc3F)C3CCOCC3)c2c1 (racemic) [Example 18, 2-(4-((3-Fluoropyridin-2-yl)(tetrahydro-2H-pyran-4-yl)methyl)-2-methyl-6-(1-methyl-4-(methyl-d3)-1H-1,2,3-triazol-5-yl)-2,4-dihydropyrazolo[3′,4′:4,5]pyrrolo[3,2-b]pyridin-3-yl)propan-2-ol] |
| 0.34 | – | 1.4 | [2H]C([2H])([2H])c1nnn(C)c1-c1cnc2c3nn(C([2H])([2H])[2H])c(C(C)(C)O)c3n(C(c3ncccc3F)C3CCOCC3)c2c1 (racemic) [Example 22, 2-(4-((3-Fluoropyridin-2-yl)(tetrahydro-2H-pyran-4-yl)methyl)-2-(methyl-d3)-6-(1-methyl-4-(methyl-d3)-1H-1,2,3-triazol-5-yl)-2,4-dihydropyrazolo[3′,4′:4,5]pyrrolo[3,2-b]pyridin-3-yl)propan-2-ol] |
| 1.8 | – | 36.9 | Cc1nnn(C)c1-c1cnc2c3nn(C)c(C(C)(C)O)c3n(C(c3ccccc3)C3CCOCC3)c2c1 (single isomer, unassigned) [Example 3, 2-(6-(1,4-Dimethyl-1H-1,2,3-triazol-5-yl)-2-methyl-4-(phenyl(tetrahydro-2H-pyran-4-yl)methyl)-2,4-dihydropyrazolo[3′,4′:4,5]pyrrolo[3,2-b]pyridin-3-yl)propan-2-ol] |
| 0.18 | – | 1.28 | Cc1nnn(C)c1-c1cnc2c3nn(C)c(C(C)(C)O)c3n(C(c3ccccc3)C3CCOCC3)c2c1 (single isomer, unassigned) [Example 4, 2-(6-(1,4-Dimethyl-1H-1,2,3-triazol-5-yl)-2-methyl-4-(phenyl(tetrahydro-2H-pyran-4-yl)methyl)-2,4-dihydropyrazolo[3′,4′:4,5]pyrrolo[3,2-b]pyridin-3-yl)propan-2-ol] |
| 6.8 | – | 63.3 | Cc1nnn(C)c1-c1cnc2c3nn(C)c(C(C)(C)O)c3n(C(c3ncccc3F)C3CCOCC3)c2c1 (single isomer, unassigned) [Example 11, 2-(6-(1,4-Dimethyl-1H-1,2,3-triazol-5-yl)-4-((3-fluoropyridin-2-yl)(tetrahydro-2H-pyran-4-yl)methyl)-2-methyl-2,4-dihydropyrazolo[3′,4′:4,5]pyrrolo[3,2-b]pyridin-3-yl)propan-2-ol] |
| 0.19 | – | 0.52 | Cc1nnn(C)c1-c1cnc2c3nn(C)c(C(C)(C)O)c3n(C(c3ncccc3F)C3CCOCC3)c2c1 (single isomer, unassigned) [Example 12, 2-(6-(1,4-Dimethyl-1H-1,2,3-triazol-5-yl)-4-((3-fluoropyridin-2-yl)(tetrahydro-2H-pyran-4-yl)methyl)-2-methyl-2,4-dihydropyrazolo[3′,4′:4,5]pyrrolo[3,2-b]pyridin-3-yl)propan-2-ol] |
| 4.8 | – | 72.2 | [2H]C([2H])([2H])n1nc2c3ncc(-c4c(C)nnn4C)cc3n(C(c3ncccc3F)C3CCOCC3)c2c1C(C)(C)O (single isomer, unassigned) [Example 15, 2-(6-(1,4-Dimethyl-1H-1,2,3-triazol-5-yl)-4-((3-fluoropyridin-2-yl)(tetrahydro-2H-pyran-4-yl)methyl)-2-(methyl-d3)-2,4-dihydropyrazolo[3′,4′:4,5]pyrrolo[3,2-b]pyridin-3-yl)propan-2-ol] |
| 0.18 | – | 0.49 | [2H]C([2H])([2H])n1nc2c3ncc(-c4c(C)nnn4C)cc3n(C(c3ncccc3F)C3CCOCC3)c2c1C(C)(C)O (single isomer, unassigned) [Example 16, 2-(6-(1,4-Dimethyl-1H-1,2,3-triazol-5-yl)-4-((3-fluoropyridin-2-yl)(tetrahydro-2H-pyran-4-yl)methyl)-2-(methyl-d3)-2,4-dihydropyrazolo[3′,4′:4,5]pyrrolo[3,2-b]pyridin-3-yl)propan-2-ol] |
| 5 | – | 85.3 | [2H]C([2H])([2H])c1nnn(C)c1-c1cnc2c3nn(C)c(C(C)(C)O)c3n(C(c3ncccc3F)C3CCOCC3)c2c1 (single isomer, unassigned) [Example 19, 2-(4-((3-Fluoropyridin-2-yl)(tetrahydro-2H-pyran-4-yl)methyl)-2-methyl-6-(1-methyl-4-(methyl-d3)-1H-1,2,3-triazol-5-yl)-2,4-dihydropyrazolo[3′,4′:4,5]pyrrolo[3,2-b]pyridin-3-yl)propan-2-ol] |
| 0.17 | – | 0.81 | [2H]C([2H])([2H])c1nnn(C)c1-c1cnc2c3nn(C)c(C(C)(C)O)c3n(C(c3ncccc3F)C3CCOCC3)c2c1 (single isomer, unassigned) [Example 20, 2-(4-((3-Fluoropyridin-2-yl)(tetrahydro-2H-pyran-4-yl)methyl)-2-methyl-6-(1-methyl-4-(methyl-d3)-1H-1,2,3-triazol-5-yl)-2,4-dihydropyrazolo[3′,4′:4,5]pyrrolo[3,2-b]pyridin-3-yl)propan-2-ol] |
| 4.4 | – | 66.8 | [2H]C([2H])([2H])c1nnn(C)c1-c1cnc2c3nn(C([2H])([2H])[2H])c(C(C)(C)O)c3n(C(c3ncccc3F)C3CCOCC3)c2c1 (single isomer, unassigned) [Example 23, 2-(4-((3-Fluoropyridin-2-yl)(tetrahydro-2H-pyran-4-yl)methyl)-2-(methyl-d3)-6-(1-methyl-4-(methyl-d3)-1H-1,2,3-triazol-5-yl)-2,4-dihydropyrazolo[3′,4′:4,5]pyrrolo[3,2-b]pyridin-3-yl)propan-2-ol] |
